Consider 1 compound from patent publication US6054478A, “Antifungal sordaridin derivatives” (Glaxo Wellcome S.A., priority 1994, dated 2000).

In series [1] the test system is C. albicans 4711E. In words: in vivo protection of mice infected with C. albicans. Also noted: species or system Candida albicans; male mice. As to conditions: 50 mg/kg sc. The text has this:
The in vivo evaluation of compounds of formula (I) can be carried out at a series of dose levels by administration (e.g. subcutaneously, orally, intraperitoneally or intravenously) to mice or rats inoculated with a strain of Candida albicans. Untreated animals die within 3 to 9 days and the dose level at which the test compound provides 50% protection against the lethal effect of the infection is noted.
(§1) The compounds of the invention are essentially non-toxic at therapeutically useful levels.

For series [2], the system named is C. albicans 1208E. In words: in vitro antifungal MIC, two-fold serial dilution. Format: cell-based. The settings on record: Candida albicans, 24 to 48 hours at 37° C. On the procedure: (§2) The in vitro evaluation of the anti-fungal activity of compounds of the invention was performed on liquid or solid medium by the anti-fungal two-fold serial dilution technique of determining the minimum inhibitory concentration (MIC) of anti-fungal agent that inhibited development of growth after 24 to 48 hours of incubation at 37° C. In practice, a series of agar plates or broth microdilution panels containing two-fold dilutions of anti-fungal agent tested were inoculated with a standard culture of a clinically relevant pathogen, for example, candida albicans. The agar plates or broth microdulution panels were then examined for the presence or absence of growth of the fungus and the appropriate MIC values were noted. Compounds of formula (I) have been tested for anti fungal activity in a standard in vitro screen and the minimum inhibiting concentration (MIC; μg/ml) determined for each compound against a variety of clinically relevant pathogens.

For series [3], the system named is C. glabrata 2375E. In words: in vitro antifungal MIC, two-fold serial dilution. The settings on record: Nakaseomyces glabratus, 24 to 48 hours at 37° C. Format: cell-based. As to the method:
as §2

Series [4] has as its system C. albicans 2005E. As to the kind of experiment: in vitro antifungal MIC, two-fold serial dilution. Format: cell-based. The settings on record: Candida albicans, 24 to 48 hours at 37° C. As to the method:
as §2

Series [5] deals with C. tropicalis 2808E. As to the kind of experiment: in vitro antifungal MIC, two-fold serial dilution. Format: cell-based. The settings on record: Candida tropicalis, 24 to 48 hours at 37° C. As to the method: as §2
For series [6], the system named is C. neoformans 2867E. As to the kind of experiment: in vitro antifungal MIC, two-fold serial dilution. Format: cell-based. As to conditions: Cryptococcus neoformans, 24 to 48 hours at 37° C. On the procedure: as §2
Series [7] deals with C. albicans 2402E. As to the kind of experiment: in vitro antifungal MIC, two-fold serial dilution. Format: cell-based. The settings on record: Candida albicans, 24 to 48 hours at 37° C. On the procedure:
as §2

For series [8], the system named is C. glabrata 2376E. As to the kind of experiment: in vitro antifungal MIC, two-fold serial dilution. Format: cell-based. The settings on record: Nakaseomyces glabratus, 24 to 48 hours at 37° C. As to the method: as §2
Series [9] deals with C. albicans 4711. As to the kind of experiment: in vitro antifungal MIC, two-fold serial dilution. The settings on record: Candida albicans, 24 to 48 hours at 37° C. Format: cell-based. On the procedure: as §2
In series [10] the test system is C. psuedotropicalis 371E. In words: in vitro antifungal MIC, two-fold serial dilution. Format: cell-based, Candida pseudotropicalis. The settings on record: Kluyveromyces marxianus, 24 to 48 hours at 37° C. As to the method: as §2
The nature of series [11]: adverse effects in treated mice. Format: in vivo, male mice. As to conditions: 50 mg/kg sc.
Description: as §1

≈ marks a conversion by molar mass, not a printed value.

A word on the MIC: it is the smallest concentration in the dilution series that meets the test's criterion for growth inhibition.

For `CCCOC1CC(OCC23CC4C(C)CCC4C4(C=O)CC2C=C(C(C)C)C43C(=O)O)OC(C)C1OC` [Example 7, [1R-(1α, 3aβ, 4β, 4aβ, 7β, 7aα, 8aβ)] 8a-[(2,6-Dideoxy-4-O-3-O-propyl-β-D-alopyranosyloxy)methyl]-4-formyl-4,4a,5,6,7,7a,8,8a-octahydro-7-methyl-3-(1-methylethyl)-1,4-methano-s-indacene-3a(1H)-carboxylic acid], in series [1], the “protection of male mice infected with C. albicans 4711E” value is recorded as “active in protecting male mice”. The minimal inhibitory concentration (MIC) in series [2] is 15 ng/mL (≈ 0.0289 µM); in series [3] it was 8000 ng/mL (≈ 15.4 µM); in series [4], not above 1 ng/mL; in series [5], 3 ng/mL (≈ 0.00578 µM); in series [6], 125000 ng/mL (≈ 241 µM); in [7] it was 8 ng/mL (≈ 0.0154 µM). In addition, the MIC came to 8000 ng/mL (≈ 15.4 µM) in [8], 4 ng/mL (≈ 0.00771 µM) in [9] and 4 ng/mL (≈ 0.00771 µM) in series [10]. Also, in series [11], the “adverse effects in the treated mice” value is listed as “no adverse effects were observed”.
